# Reference: US20250073184A1, “CANNABIGEROQUINONE COMPOUNDS, COMPOSITIONS INCLUDING SUCH COMPOUNDS, AND USES OF SUCH COMPOUNDS AND COMPOSITIONS” (Juva Life, Inc., priority 2021, published 2025)
# What was measured:
# [1] = molecular target: T1, cannabinoid receptor 1 (CNR1) (Homo sapiens, UniProt P21554); assay: CB1 receptor agonist assay (cAMP Hunter eXpress, CNR1 CHO-K1 cells); type: cell-based; details: agonist mode, Forskolin-stimulated cAMP
# T1 construct: host or cells: CHO-K1
# Method: The assays were performed in cAMP Hunter eXpress cells engineered to overexpress naturally Gi/Go-coupled wildtype cannabinoid receptor 1 (CNR1) or cannabinoid receptor 2 (CNR2) in CHO-K1 cell type. In these cells, CB1 and/or […] agonists inhibit production of intracellular cAMP in response to stimulation with Forskolin. cAMP levels are determined using luminogenic detection reagents provided with the Hunter eXpress cAMP detection kit.
# • Assay ready CNR1 CHO-K1 cells were obtained from Eurofins/Discover X, cat #95-0071E2 • Assay ready CNR2 CHO-K1 cells were obtained from Eurofins/Discover X, cat #95-0183E2 • Hunter eXpress cAMP detection kit was also from Discover X. The kit includes all cAMP detection reagents, Forskolin, complete cell plating medium and cell assay buffer.
# The Assay-Ready CNR1 CHO-K1 or CNR2 CHO-K1 cells were thawed and re-suspended in pre-warmed Assay Complete plating medium and inoculated into 96 well plate at a density of 30,000 cells in 100 μL. The plates with cells were incubated for 24 h at 37° C. in 5% CO2. […] The cells were stimulated with the Forskolin/compound buffer for 30 min. […] The plate was read on Biotek Synergy Neo2 reader in luminescent mode. […] Relative luminescence units (RLUs) were plotted against compound concentration to determine apparent EC50 values of the agonist compounds.
# Human COX2 = molecular target: T2, Human COX2 (Homo sapiens, UniProt P35354); assay: Biochemical COX-2 assay; details: recombinant enzyme; read-out: Inhibitory Activity EC50, Cox2
# T2 construct: 1-604 (end); purchased BPS Biosciences 71111; host or cells: baculovirus infected Sf9 cells
# T2 sequence (P35354 18-604): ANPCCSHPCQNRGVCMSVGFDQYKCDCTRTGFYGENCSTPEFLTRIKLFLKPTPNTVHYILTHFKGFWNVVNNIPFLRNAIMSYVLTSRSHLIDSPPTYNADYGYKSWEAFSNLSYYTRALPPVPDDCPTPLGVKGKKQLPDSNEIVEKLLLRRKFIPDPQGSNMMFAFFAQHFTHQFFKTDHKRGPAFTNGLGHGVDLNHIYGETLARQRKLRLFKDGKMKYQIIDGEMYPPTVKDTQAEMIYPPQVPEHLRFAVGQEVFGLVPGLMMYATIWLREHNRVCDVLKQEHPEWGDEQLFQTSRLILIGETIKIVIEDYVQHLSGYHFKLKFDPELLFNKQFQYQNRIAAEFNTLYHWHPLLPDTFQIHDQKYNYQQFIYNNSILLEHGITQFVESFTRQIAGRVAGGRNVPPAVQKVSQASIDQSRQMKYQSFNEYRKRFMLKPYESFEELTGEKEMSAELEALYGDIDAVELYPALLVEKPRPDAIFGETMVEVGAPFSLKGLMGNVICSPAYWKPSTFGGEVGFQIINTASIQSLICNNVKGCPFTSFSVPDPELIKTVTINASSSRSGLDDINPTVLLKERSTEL
# Excerpt: • Human COX2, GenBank Accession No. NM_000963, a.a. 1-604 (end), with C-terminal FLAG-His-tag, MW=71 kDa, expressed in a baculovirus infected Sf9 cell expression system was obtained from BPS Biosciences (Catalog #71111) • Cyclooxygenase (COX) Activity Assay Kit (Fluorometric) was obtained from Abcam (Catalog #ab204699) • Other reagents: black 384 well assay plates were obtained from Corning (Cat #3820). • Equipment: Synergy Neo2 Multi-mode plate reader (Biotek), Labcyte 550 acoustic dispenser (Labcyte), Biomek FX robotic dispenser (Beckman Coulter), Sorvall Legend RT centrifuge (Kendro).
# Serially diluted compounds were prepared in DMSO in Echo qualified 384 well plates. An assay buffer was then prepared, and supplemented with Cox cofactor and fluorogenic probe as described in the Cox activity kit manual. […]
# Serially diluted compounds were added to the assay plate by acoustic dispensing (Labcyte 550). […] Afterwards, the plate was read on a Synergy Neo2 in fluorescence mode: excitation 535 nm, emission 590 nm. % inhibition of the compound was calculated using following equation:
# where RFU100% is fluorescence in control samples without compound, RFU0% is fluorescence in control samples without COX-2, and RFU compound fluorescence in a sample with compound.
# The calculated %-Inh values were then plotted against compound concentration. […]
# T1 sequence (P21554 whole entry): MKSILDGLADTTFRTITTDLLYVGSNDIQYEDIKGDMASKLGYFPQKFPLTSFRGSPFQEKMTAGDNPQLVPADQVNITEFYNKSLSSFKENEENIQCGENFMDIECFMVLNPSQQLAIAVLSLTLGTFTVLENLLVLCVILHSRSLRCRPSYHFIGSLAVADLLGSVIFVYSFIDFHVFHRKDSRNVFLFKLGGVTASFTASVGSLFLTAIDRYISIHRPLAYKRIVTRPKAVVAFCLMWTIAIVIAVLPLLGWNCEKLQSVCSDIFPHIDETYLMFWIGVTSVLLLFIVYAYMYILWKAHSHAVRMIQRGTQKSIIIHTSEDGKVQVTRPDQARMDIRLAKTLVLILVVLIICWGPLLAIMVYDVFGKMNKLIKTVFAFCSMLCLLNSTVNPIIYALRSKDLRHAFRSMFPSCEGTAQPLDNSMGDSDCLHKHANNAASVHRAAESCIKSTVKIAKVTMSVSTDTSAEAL
substance,measurement,setting,value
Cannabigerol Quinone [Formula VI],IC50,[1],> 3 µM
same,EC50,Human COX2,60.6 µM
